We go through 19 compounds from US12583818B2 (DAEGU-GYEONGBUK MEDICAL INNOVATION FOUNDATION, priority 2020, dated 2026).

Assay [1] has as its system A2780-SP cells (ovarian cancer stem cells). Kind of assay: Sphere cell viability of A2780-SP cells (Cell-titer Glo). It counts as cell-based. The procedure: (§1) In order to confirm the inhibitory effect of the compound represented by formula 1 according to the present invention on the growth of MCF7, MCF7-SP, A2780 or A2780-SP cells, the following experiment was performed, and the results are shown in Tables 4 and 5 below.
On the other hand, A2780-SP cells (ovarian cancer stem cells) were plated in an Ultra-Low Attachment round bottom 96-well plate (corning) at the density of 1,500 viable cells per well, and cultured in cancer stem cell medium. The cancer stem cell medium is composed of the neurobasal medium supplemented with 20 ng/ml of bFGF, 10 ng/ml of EGF, […] of amphotericin B, HEPES, Glutamax and B27.
On the next day of culture, the cells were treated with the compound of Examples 57, and 69 to 144, followed by culture for 8 days. The medium containing the compound was added thereto once again on the 4th day. Sphere cell viability was evaluated by Cell-titer Glo (Promega, WC, USA), and luciferase activity was detected using a Tecan plate reader (Biocompare, USA).

Assay [2] has as its system A2780 cells (ovarian cancer cells). Kind of assay: Cell viability of A2780 cells (Cell-titer Glo). It counts as cell-based. As to conditions: Homo sapiens. The procedure: as §1
In addition, A2780 cells (ovarian cancer cells) were plated in a 96-well plate at the density of 3000 viable cells per well, and cultured in RPMI-1640 medium supplemented with 10% FBS and 1% penicillin/streptomycin.
On the next day of culture, the cells were treated with the compound of Examples 57, and 69 to 144, followed by culture for 3 days. Cell viability was evaluated by Cell-titer Glo (Promega, WC, USA), and luciferase activity was detected using a Tecan plate reader (Biocompare, USA).

In the next assay the target is T1, Pin1 (Homo sapiens, UniProt Q13526).
T1 construct: purchased Anaspec
T1 sequence (Q13526 whole entry): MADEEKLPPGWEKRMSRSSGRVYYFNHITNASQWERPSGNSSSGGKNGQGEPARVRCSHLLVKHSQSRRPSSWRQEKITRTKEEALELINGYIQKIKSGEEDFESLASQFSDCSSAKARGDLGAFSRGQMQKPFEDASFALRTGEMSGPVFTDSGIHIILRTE
Nature of the assay: Evaluation of Pin1 enzyme inhibitory activity (Sensolyte Green Pin1 assay kit). It is filed as biochemical. The procedure, abridged:
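Pin1 activity was measured with a fluorogenic kit assay (Sensolyte Green) using substrate prepared at 1 μM and protein at 50 μg/ml, both pre-mix concentrations. Compound working solutions were 100, 10, 1 or 0.1 μM, and reactions ran 2 h at room temperature in the dark, read at 490/520 nm. Inhibition was graded A–D by concentration.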

Setting [3] is: 192 h, sphere cell viability, culture for 8 days, read-out: A2780-SP.
[4] abbreviates: 72 h, cell viability, culture for 3 days, read-out: A2780.
[5] abbreviates: Table 2, read-out: concentration at which Pin1 inhibitory activity was exhibited.
Setting [6] is: concentration at which the Pin1 enzyme activity is inhibited, 2 hours at room temperature, fluorescence 490 nm/520 nm, read-out: Pin 1 inhibition.
[7] abbreviates: Table 5, read-out: the concentration (second list of b710, cell line not named; matches A2780-SP column).
[8] abbreviates: A2780, Table 5, read-out: A2780 cell concentration.

Where two headings read alike, the source gives them in different places. Some results are limits rather than exact numbers.

For `CN1CCN(CCCOc2ccc(S(=O)(=O)Nc3ccccc3Cc3c[nH]c4ccc(Cl)cc34)cc2)CC1` [Example 149, N-(2-((5-chloro-1H-indole-3-yl)methyl)phenyl)-4-(3-(4-methylpiperazine-1-yl)propoxy)benzenesulfonamide], the IC50 in assay [1] (setting [3]) is > 10000 nM; in assay [2] (setting [4]), > 10 µM; on Pin1 (setting [5]), < 1000 nM; at Pin1 (setting [6]), < 1000 nM.

`O=S(=O)(Nc1ccccc1Cc1c[nH]c2ccc(Cl)cc12)c1ccc(OCCCN2CCNCC2)cc1` [Example 150, N-(2-((5-chloro-1H-indol-3-yl)methyl)phenyl)-4-(3-(piperazin-1-yl)propoxy)benzenesulfonamide]: the IC50 in assay [1] (setting [3]) is < 1000 nM; in assay [1] (setting [7]), < 1000 nM; in assay [2] (setting [4]), > 10 µM; on Pin1 (setting [5]) it was < 1000 nM; on Pin1 (setting [6]), < 1000 nM.

`CC(CCc1c[nH]c2ccc(Cl)cc12)NS(=O)(=O)c1ccc(OCCCN2CCN(C)CC2)cc1` (centres unmarked) [Example 151]: the IC50 was < 1000 nM in assay [1] (setting [3]); < 1000 nM in assay [1] (setting [7]); > 10 µM in assay [2] (setting [4]); < 1000 nM at Pin1 (setting [5]); < 1000 nM on Pin1 (setting [6]).

As to `CC(CCc1c[nH]c2ccc(Cl)cc12)NS(=O)(=O)c1ccc(OCCCN2CCNCC2)cc1` (centres unmarked) [Example 152, N-(4-(5-chloro-1H-indol-3-yl)butan-2-yl)-4-(3-(piperazin-1-yl)propoxy)benzenesulfonamide], the IC50 is < 1000 nM in assay [1] (setting [3]); < 1000 nM in assay [1] (setting [7]); > 10 µM in assay [2] (setting [4]); < 1000 nM on Pin1 (setting [5]); < 1000 nM at Pin1 (setting [6]).

As for `O=S(=O)(NCCCc1c[nH]c2ccc(Br)cc12)c1ccc(OCCCN2CCNCC2)cc1` [Example 153, N-(3-(5-bromo-1H-indole-3-yl)propyl)-4-(3-(piperazine-1-yl)propoxy)benzenesulfonamide], the IC50 in assay [1] (setting [3]) was < 1000 nM; in assay [1] (setting [7]) it was < 1000 nM; in assay [2] (setting [4]), 1 to 10 µM; in assay [2] (setting [8]) it was < 10 µM; on Pin1 (setting [5]) it was < 1000 nM; at Pin1 (setting [6]) it was < 1000 nM.

On to `CN1CCN(CCCOc2ccc(S(=O)(=O)NCCCc3c[nH]c4ccc(Br)cc34)cc2)CC1` [Example 154, N-(3-(5-bromo-1H-indol-3-yl)propyl)-4-(3-(4-methylpiperazin-1-yl)propoxy)benzenesulfonamide], for which the IC50 in assay [1] (setting [3]) was < 1000 nM; in assay [1] (setting [7]) it was < 1000 nM; in assay [2] (setting [4]) it was 1 to 10 µM; in assay [2] (setting [8]), < 10 µM; at Pin1 (setting [5]) it was < 1000 nM; at Pin1 (setting [6]), < 1000 nM.

Regarding `Cc1[nH]c2ccc(Cl)cc2c1CCCNS(=O)(=O)c1ccc(OCCCN2CCNCC2)cc1` [Example 157, N-(3-(5-chloro-2-methyl-1H-indol-3-yl)propyl)-4-(3-(piperazin-1-yl)propoxy)benzenesulfonamide], the IC50 is < 1000 nM in assay [1] (setting [3]), < 1000 nM in assay [1] (setting [7]), > 10 µM in assay [2] (setting [4]) and 1000 to 10000 nM on Pin1 (setting [6]).

Regarding `CN1CCN(CCCOc2ccc(S(=O)(=O)NCCc3c[nH]c4ccc(Cl)cc34)cc2)CC1` [Example 158, N-(2-(5-chloro-1H-indol-3-yl)ethyl)-4-(3-(4-methylpiperazin-1-yl)propoxy)benzenesulfonamide], the IC50 in assay [1] (setting [3]) is < 1000 nM; in assay [1] (setting [7]) it was < 1000 nM; in assay [2] (setting [4]), > 10 µM; at Pin1 (setting [5]), < 1000 nM; at Pin1 (setting [6]), < 1000 nM.

In the case of `O=S(=O)(NCCc1c[nH]c2ccc(Cl)cc12)c1ccc(OCCCN2CCNCC2)cc1` [Example 159, N-(2-(5-chloro-1H-indol-3-yl)ethyl)-4-(3-(piperazin-1-yl)propoxy)benzenesulfonamide], the IC50 in assay [1] (setting [3]) is < 1000 nM; in assay [1] (setting [7]), < 1000 nM; in assay [2] (setting [4]) it was > 10 µM; on Pin1 (setting [5]), < 1000 nM; on Pin1 (setting [6]), < 1000 nM.

Turning to `O=S(=O)(NCCCc1c[nH]c2ccc(Cl)cc12)c1ccc(OCCCn2cncn2)cc1` [Example 160, 4-(3-(1H-1,2,4-triazol-1-yl)propoxy)-N-(3-(5-chloro-1H-indol-3-yl)propyl)benzenesulfonamide], the IC50 in assay [1] (setting [3]) is > 10000 nM; in assay [2] (setting [4]) it was > 10 µM; on Pin1 (setting [5]), < 1000 nM; on Pin1 (setting [6]), < 1000 nM.

As for `Cc1nccn1CCCOc1ccc(S(=O)(=O)NCCCc2c[nH]c3ccc(Cl)cc23)cc1` [Example 161, N-(3-(5-chloro-1H-indol-3-yl)propyl)-4-(3-(2-methyl-1H-imidazol-1-yl)propoxy)benzenesulfonamide], the IC50 is < 1000 nM in assay [1] (setting [3]); < 1000 nM in assay [1] (setting [7]); > 10 µM in assay [2] (setting [4]); < 1000 nM on Pin1 (setting [5]); < 1000 nM at Pin1 (setting [6]).

`O=S(=O)(NCCCc1c[nH]c2c(Cl)cc(Cl)cc12)c1ccc(OCCCN2CCNCC2)cc1` [Example 164, N-(3-(5,7-dichloro-1H-indol-3-yl)propyl)-4-(3-(piperazin-1-yl)propoxy)benzenesulfonamide]: the IC50 in assay [1] (setting [3]) is < 1000 nM; in assay [1] (setting [7]), < 1000 nM; in assay [2] (setting [4]) it was 1 to 10 µM; in assay [2] (setting [8]), < 10 µM; at Pin1 (setting [5]), < 1000 nM; at Pin1 (setting [6]), < 1000 nM.

Consider `CN1CCN(CCCOc2ccc(S(=O)(=O)NCCCc3c[nH]c4c(Cl)cc(Cl)cc34)cc2)CC1` [Example 165, N-(3-(5,7-dichloro-1H-indol-3-yl)propyl)-4-(3-(4-methylpiperazin-1-yl)propoxy)benzenesulfonamide], for which the IC50 in assay [1] (setting [3]) was < 1000 nM; in assay [1] (setting [7]) it was < 1000 nM; in assay [2] (setting [4]), 1 to 10 µM; in assay [2] (setting [8]) it was < 10 µM; at Pin1 (setting [5]), < 1000 nM; on Pin1 (setting [6]), < 1000 nM.

`O=S(=O)(NCCCc1c[nH]c2ccc(Cl)cc12)c1ccc(OCCCn2cnc(Cl)c2Cl)cc1` [Example 166, N-(3-(5-chloro-1H-indol-3-yl)propyl)-4-(3-(4,5-dichloro-1H-imidazol-1-yl)propoxy)benzenesulfonamide]: the IC50 in assay [1] (setting [3]) is 1000 to 10000 nM; in assay [2] (setting [4]), > 10 µM; on Pin1 (setting [5]) it was < 1000 nM; at Pin1 (setting [6]), < 1000 nM.

`CN1CCN(CCCOc2ccc(S(=O)(=O)NCCCc3n[nH]c4ccc(Cl)cc34)cc2)CC1` [Example 167, N-(3-(5-chloro-1H-indazole-3-yl)propyl)-4-(3-(4-methylpiperazine-1-yl)propoxy)benzenesulfonamide]: the IC50 is < 1000 nM in assay [1] (setting [3]); < 1000 nM in assay [1] (setting [7]); 1 to 10 µM in assay [2] (setting [4]); < 10 µM in assay [2] (setting [8]); < 1000 nM at Pin1 (setting [5]); < 1000 nM on Pin1 (setting [6]).

`O=S(=O)(NCCCc1n[nH]c2ccc(Cl)cc12)c1ccc(OCCCN2CCNCC2)cc1` [Example 168, N-(3-(5-chloro-1H-indazol-3-yl)propyl)-4-(3-(piperazin-1-yl)propoxy)benzenesulfonamide]: the IC50 in assay [1] (setting [3]) was < 1000 nM; in assay [1] (setting [7]) it was < 1000 nM; in assay [2] (setting [4]), > 10 µM; at Pin1 (setting [5]), < 1000 nM; on Pin1 (setting [6]), < 1000 nM.

`CN1CCN(CCCOc2ccc(S(=O)(=O)NCCCc3c[nH]c4ncc(Cl)cc34)cc2)CC1` [Example 169, N-(3-(5-chloro-1H-pyrrolo[2,3-b]pyridin-3-yl)propyl)-4-(3-(4-methylpiperazin-1-yl)propoxy)benzenesulfonamide]: the IC50 is < 1000 nM in assay [1] (setting [3]); < 1000 nM in assay [1] (setting [7]); 1 to 10 µM in assay [2] (setting [4]); < 10 µM in assay [2] (setting [8]); < 1000 nM on Pin1 (setting [5]); < 1000 nM on Pin1 (setting [6]).

For the compound `O=S(=O)(NCCCc1c[nH]c2ncc(Cl)cc12)c1ccc(OCCCN2CCNCC2)cc1` [Example 170, N-(3-(5-chloro-1H-pyrrolo[2,3-b]pyridin-3-yl)propyl)-4-(3-(piperazin-1-yl)propoxy)benzenesulfonamide], the IC50 in assay [1] (setting [3]) is < 1000 nM; in assay [1] (setting [7]), < 1000 nM; in assay [2] (setting [4]), 1 to 10 µM; in assay [2] (setting [8]), < 10 µM; at Pin1 (setting [5]) it was < 1000 nM; at Pin1 (setting [6]), < 1000 nM.

Consider `CN1CCN(C[C@@H](O)COc2ccc(S(=O)(=O)NCCCc3c[nH]c4ccc(Cl)cc34)cc2)CC1` [Example 171, (R)—N-(3-(5-chloro-1H-indole-3-yl)propyl)-4-(2-hydroxy-3-(4-methylpiperazine-1-yl)propoxy)benzenesulfonamide], for which the IC50 in assay [1] (setting [3]) was < 1000 nM; in assay [1] (setting [7]), < 1000 nM; in assay [2] (setting [4]), > 10 µM; at Pin1 (setting [5]) it was < 1000 nM; at Pin1 (setting [6]), < 1000 nM.
